# Reference: patent publication US20230117034A1, “PYRAZOLOTRIAZINES” (Bayer Aktiengesellschaft, priority 2019, published 2023)
# How the values were obtained:
# [1] = tested on: BRCA1 mRNA expression in MDA-MB-231 cells; test: qRT-PCR assay: BRCA1 mRNA expression in MDA-MB-231; format: cell-based, human; details: Homo sapiens, MDA-MB-231, Inhibition of BRCA1 mRNA expression in MDA-MB-231 cells; median; read-out: RTqPCR-MDA-MB-231, IC50, BRCA1 (median)
# Outline: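 MDA-MB-231 cells, 200,000/well, treated 24 h after plating with continuous 24 h compound exposure. RNA extracted, 600 ng reverse-transcribed, BRCA1 measured by RT-qPCR normalized to GAPDH.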
# CDK2/CycE = target: T1, CDK2/CycE (Homo sapiens, UniProt P24941); test: CDK2/CycE kinase assay (TR-FRET, 2 mM ATP); format: biochemical; details: 2 mM ATP (high ATP); median; read-out: CDK2/CyclinE, 2 mM ATP (high ATP), IC50 (median)
# T1 construct: purchased ProQinase GmbH (Freiburg, Germany); host or cells: insect cells (Sf9)
# Outline: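 GST-tagged human CDK2 and CycE from Sf9 cells, about 10 ng/ml, pre-incubated 15 min at 22 °C with compound in Tris/HCl pH 8.0 buffer. Reaction with 2 mM ATP and 0.75 µM biotinylated peptide for 25 min at 22 °C. Phospho-RB antibody TR-FRET (665/620 nm ratio) read after 1 h; data normalised to no-inhibitor and no-enzyme controls.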
# [2] = tested on: CAL-120, human breast adenocarcinoma cells; test: Proliferation assay CAL-120 (crystal violet, 4 days); format: cell-based; details: Homo sapiens, CAL-120, 96 h, CAL-120 cells, median, read-out: Prolif-CAL-120, IC50-[mol/l] (median)
# Outline: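 CAL-120 or MDA-MB-231 cells grown 24 h, then exposed 4 days to compound (0.01–10 micromol/L, 0.1% DMSO). Crystal violet staining, absorbance at 595 nm, normalised to a zero-point plate (0%) and untreated cells (100%); IC50 by 4-parameter fit.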
IC50 [1] [nM],IC50 (CDK2/CycE) [nM],IC50 [2] [nM],SMILES
5.69,> 20000,4.28,"c1ccc2[nH]c(CNc3nc(N4C[C@@H]5CCCN[C@@H]5C4)nc4c(C5CC5)cnn34)nc2c1 [Example 249, N-[(1H-benzimidazol-2-yl)methyl]-8-cyclopropyl-2-[(4aS,7aS)-octahydro-6H-pyrrolo[3,4-b]pyridin-6-yl]pyrazolo[1,5-a][1,3,5]triazin-4-amine]"
3.42,> 20000,8.13,"CN1CCN(c2nc(NCc3nc4cc(F)c(F)cc4[nH]3)n3ncc(C4CC4)c3n2)CC1 [Example 311, 8-cyclopropyl-N-[(5,6-difluoro-1H-benzimidazol-2-yl)methyl]-2-(4-methylpiperazin-1-yl)pyrazolo[1,5-a][1,3,5]triazin-4-amine]"
6.97,16100,10.8,"COc1ccc2[nH]c(CNc3nc(N4CCOCC4)nc4c(C(F)(F)F)cnn34)nc2c1 [Example 257, N-[(5-methoxy-1H-benzimidazol-2-yl)methyl]-2-(morpholin-4-yl)-8-(trifluoromethyl)pyrazolo[1,5-a][1,3,5]triazin-4-amine]"
17.6,7210,20.3,"CC1(N)CCN(c2nc(NCc3nc4ccccc4[nH]3)n3ncc(Br)c3n2)CC1 [Example 290, 2-(4-amino-4-methylpiperidin-1-yl)-N-[(1H-benzimidazol-2-yl)methyl]-8-bromopyrazolo[1,5-a][1,3,5]triazin-4-amine]"
12,> 20000,17.2,"FC1(F)CC1c1cnn2c(NCc3nc4ccccc4[nH]3)nc(N3CCOCC3)nc12 (stereo not drawn) [Example 279, N-[(1H-benzimidazol-2-yl)methyl]-8-(2,2-difluorocyclopropyl)-2-(morpholin-4-yl)pyrazolo[1,5-a][1,3,5]triazin-4-amine]"
7.91,16200,22.4,"CNC1CCN(c2nc(NCc3nc4ccccc4[nH]3)n3ncc(Br)c3n2)CC1 [Example 272, N-[(1H-benzimidazol-2-yl)methyl]-8-bromo-2-[4-(methylamino)piperidin-1-yl]pyrazolo[1,5-a][1,3,5]triazin-4-amine]"
13.9,10000,23.2,"Brc1cnn2c(NCc3nc4ccccc4[nH]3)nc(N3CC4CCNC4C3)nc12 (stereo not drawn) [Example 271, 2-(2,3,3a,4,6,6a-hexahydro-1H-pyrrolo[2,3-c]pyrrol-5-yl)-N-(1H-benzimidazol-2-ylmethyl)-8-bromo-pyrazolo[1,5-a][1,3,5]triazin-4-amine]"
6.9,10700,3.66,"CN(CC(C)(C)O)c1nc(NCc2nc3cc(F)c(Cl)cc3[nH]2)n2ncc(C3CC3)c2n1 [Example 317, 1-[(4-{[(6-chloro-5-fluoro-1H-benzimidazol-2-yl)methyl]amino}-8-cyclopropylpyrazolo[1,5-a][1,3,5]triazin-2-yl)(methyl)amino]-2-methylpropan-2-ol]"
11.4,1400,11.9,"N[C@H]1CN(c2nc(NCc3nc4ccccc4[nH]3)n3ncc(Br)c3n2)CC12CC2 [Example 259, 2-[(7R)-7-amino-5-azaspiro[2.4]heptan-5-yl]-N-[(1H-benzimidazol-2-yl)methyl]-8-bromopyrazolo[1,5-a][1,3,5]triazin-4-amine]"
31.8,2070,161,"Brc1cnn2c(NCc3nc4c([nH]3)CCCC4)nc(N3CCOCC3)nc12 [Example 21, 8-bromo-2-(morpholin-4-yl)-N-[(4,5,6,7-tetrahydro-1H-benzimidazol-2-yl)methyl]pyrazolo[1,5-a][1,3,5]triazin-4-amine]"
10,2320,35.7,"Brc1cnn2c(NCc3nnc(-c4ccccc4)[nH]3)nc(N3CCOCC3)nc12 [Example 24, 8-bromo-2-(morpholin-4-yl)-N-[(5-phenyl-4H-1,2,4-triazol-3-yl)methyl]pyrazolo[1,5-a][1,3,5]triazin-4-amine]"
1.49,2580,6.6,"N[C@@H]1CN(c2nc(NCc3nc4ccccc4[nH]3)n3ncc(Br)c3n2)CC12CC2 [Example 251, 2-[(7S)-7-amino-5-azaspiro[2.4]heptan-5-yl]-N-[(1H-benzimidazol-2-yl)methyl]-8-bromopyrazolo[1,5-a][1,3,5]triazin-4-amine]"
12.6,> 19700,16.2,CCNC1CCN(c2nc(NCc3nc4ccccc4[nH]3)n3ncc(Br)c3n2)CC1 [Example 300]
4.12,> 19500,4.05,"CN1CCN(c2nc(NCc3nc4cc(Cl)ccc4[nH]3)n3ncc(C(F)(F)F)c3n2)CC1 [Example 298, N-[(5-chloro-1H-benzimidazol-2-yl)methyl]-2-(4-methylpiperazin-1-yl)-8-(trifluoromethyl)pyrazolo[1,5-a][1,3,5]triazin-4-amine]"
2.01,> 20000,3.88,"FC(F)(F)c1cnn2c(NCc3nc4cc(Cl)ccc4[nH]3)nc(N3CCOCC3)nc12 [Example 275, N-[(5-chloro-1H-benzimidazol-2-yl)methyl]-2-(morpholin-4-yl)-8-(trifluoromethyl)pyrazolo[1,5-a][1,3,5]triazin-4-amine]"
15.3,4070,18.6,"Brc1cnn2c(NCc3nc4ccccc4[nH]3)nc(N3CCC4(CCN4)CC3)nc12 [Example 291, N-[(1H-benzimidazol-2-yl)methyl]-8-bromo-2-(1,7-diazaspiro[3.5]nonan-7-yl)pyrazolo[1,5-a][1,3,5]triazin-4-amine]"
1.6,> 20000,3.13,"C[C@@H]1CN(c2nc(NCc3nc4ccccc4[nH]3)n3ncc(C4CC4)c3n2)C[C@H](C)N1 [Example 248, N-[(1H-benzimidazol-2-yl)methyl]-8-cyclopropyl-2-[(3R,5S)-3,5-dimethylpiperazin-1-yl]pyrazolo[1,5-a][1,3,5]triazin-4-amine]"
5.46,> 20000,10.2,"Fc1ccc2[nH]c(CNc3nc(N4CCOCC4)nc4c(CC(F)(F)F)cnn34)nc2c1 [Example 308, N-[(5-fluoro-1H-benzimidazol-2-yl)methyl]-2-(morpholin-4-yl)-8-(2,2,2-trifluoroethyl)pyrazolo[1,5-a][1,3,5]triazin-4-amine]"
60.5,> 20000,87.7,"c1ccc2[nH]c(CNc3nc(N4C[C@@H]5C[C@H]4CO5)nc4c(C5CC5)cnn34)nc2c1 [Example 254, N-[(1H-benzimidazol-2-yl)methyl]-8-cyclopropyl-2-[(1S,4S)-2-oxa-5-azabicyclo[2.2.1]heptan-5-yl]pyrazolo[1,5-a][1,3,5]triazin-4-amine]"
8.39,4840,7.31,"Brc1cnn2c(NCc3nc4ccccc4[nH]3)nc(N3C[C@H]4C[C@@H]3CN4)nc12 [Example 269, N-[(1H-benzimidazol-2-yl)methyl]-8-bromo-2-[(1R,4R)-2,5-diazabicyclo[2.2.1]heptan-2-yl]pyrazolo[1,5-a][1,3,5]triazin-4-amine]"
24.2,1990,73.8,"Brc1cnn2c(NCc3nc4ccccc4[nH]3)nc(NCC3CC3)nc12 [Example 284, N^4-[(1H-benzimidazol-2-yl)methyl]-8-bromo-N^2-(cyclopropylmethyl)pyrazolo[1,5-a][1,3,5]triazine-2,4-diamine]"
2.04,> 12500,2.32,"Cc1cc2nc(CNc3nc(N4CCN(C)CC4)nc4c(C5CC5)cnn34)[nH]c2cc1C [Example 312, 8-cyclopropyl-N-[(5,6-dimethyl-1H-benzimidazol-2-yl)methyl]-2-(4-methylpiperazin-1-yl)pyrazolo[1,5-a][1,3,5]triazin-4-amine]"
75.3,> 20000,38.4,"Fc1ccc2[nH]c(CNc3nc(N4CCOCC4)nc4c([C@@H]5CC5(F)F)cnn34)nc2c1 (single isomer, unassigned) [Example 315, 8-[(1R or S)-2,2-difluorocyclopropyl]-N-[(5-fluoro-1H-benzimidazol-2-yl)methyl]-2-(morpholin-4-yl)pyrazolo[1,5-a][1,3,5]triazin-4-amine]"

SMILES,IC50 [1] [nM],IC50 (CDK2/CycE) [nM],IC50 [2] [nM]
"N[C@H]1[C@@H]2C[C@H]1CN(c1nc(NCc3nc4ccccc4[nH]3)n3ncc(Br)c3n1)C2 [Example 288, 2-[(1R,5S,6r)-6-amino-3-azabicyclo[3.1.1]heptan-3-yl]-N-[(1H-benzimidazol-2-yl)methyl]-8-bromopyrazolo[1,5-a][1,3,5]triazin-4-amine]",2.69,2640,1.8
"N[C@@H]1[C@@H]2C[C@H]1CN(c1nc(NCc3nc4ccccc4[nH]3)n3ncc(Br)c3n1)C2 [Example 289, 2-[(1R,5S,6s)-6-amino-3-azabicyclo[3.1.1]heptan-3-yl]-N-[(1H-benzimidazol-2-yl)methyl]-8-bromopyrazolo[1,5-a][1,3,5]triazin-4-amine]",2.91,5290,3.08
